Measured values from PMC10263210, “Design, Synthesis and Biological Evaluation of Novel MDH Inhibitors Targeting Tumor Microenvironment” (Pharmaceuticals, 2023).
Each block holds one molecule with its values, some of them ahead of it.

How the values were obtained:
[1] = biological target: T1, human recombinant MDH2 (Homo sapiens, UniProt P40926); test: MDH2 enzyme activity assay (oxaloacetate-dependent NADH oxidation); assay type: biochemical; conditions: means of three experiments
T1 construct: purchased BioVision
T1 sequence (P40926 25-338): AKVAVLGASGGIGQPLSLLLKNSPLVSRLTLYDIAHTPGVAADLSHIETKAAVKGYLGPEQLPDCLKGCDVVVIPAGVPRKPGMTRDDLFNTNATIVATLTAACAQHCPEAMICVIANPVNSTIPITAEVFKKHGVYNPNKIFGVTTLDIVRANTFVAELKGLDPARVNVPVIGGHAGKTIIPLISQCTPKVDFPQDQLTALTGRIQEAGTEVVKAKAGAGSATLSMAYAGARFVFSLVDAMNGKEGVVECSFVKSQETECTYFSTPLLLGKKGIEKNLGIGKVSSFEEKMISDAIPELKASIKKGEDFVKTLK
Text: (§1) To develop the dual inhibitors of MDH1 and MDH2, we screened the newly synthesized LW1497 derivatives using MDH and MDH2 enzyme assays. LW1497 was used as the positive control for the MDH1/2 dual inhibitor. We evaluated the ability of the synthesized compounds to inhibit human recombinant MDH1 and MDH2 enzymatic activity using an oxaloacetate-dependent NADH oxidation assay (Table 1, Table 2, Table 3, Table 4, Table 5 and Table 6). Our SAR optimization strategy focused on four different parts of LW1497: (A) the introduction of various groups at different positions on the amide phenyl ring; (B) the replacement of the 3-(4-(2,4,4-trimethylpentan-2-yl) alkyl chain; (C) the alteration of the amide portion; and (D) the modification of the oxypropanamide linker portion (Figure 1).
(§2) The activities of MDH1 and MDH2 were confirmed using an oxaloacetate-dependent NADH oxidation assay. Experiments were conducted using 100 mM of potassium phosphate buffer (pH 7.4) and human recombinant MDH1 (BioVision) and MDH2 (BioVision), and the results were obtained by measuring the absorbance at 340 nm. Enzyme activity was measured using a plate reader at a wavelength of 340 nm.

[2] = tested on: A549 lung cancer cells; test: Cell growth inhibition assay (SRB), A549; assay type: cell-based; conditions: Homo sapiens, means of three experiments, read-out: Cell Viability IC50 A549
Description: (§3) At the same time, we investigated the effect of the compounds on the growth inhibition of A549 and H460 lung cancer cells bearing KRAS and LKB1 mutations. […] Compound 50 containing a piperidine linker was selected for further analysis.
(§4) Human lung carcinoma A549 cells were cultured in Dulbecco’s modified Eagle’s medium and H460 cells were cultured in RPMI 1640 medium containing 10% fetal bovine serum and 1% penicillin/streptomycin at 37 °C with a 5% Co2 hypoxia experimental condition. The cells were grown in the hypoxia chamber (1% O2, 94% N2, and 5% Co2 in a multigas incubator)
(§5) Cell growth inhibition was assessed using sulforhodamine B (SRB) as described in [34]. The cells were fixed with 10% formalin (Sigma-Aldrich) and stained with 0.4% SRB. Protein-bound dye was dissolved in 10 mM of Tris, and its optical density was measured at 540 nm.

[3] = biological target: T2, human recombinant MDH1 (Homo sapiens, UniProt P40925); test: MDH1 enzyme activity assay (oxaloacetate-dependent NADH oxidation); assay type: biochemical; conditions: means of three experiments
T2 construct: purchased BioVision
T2 sequence (P40925 1-334): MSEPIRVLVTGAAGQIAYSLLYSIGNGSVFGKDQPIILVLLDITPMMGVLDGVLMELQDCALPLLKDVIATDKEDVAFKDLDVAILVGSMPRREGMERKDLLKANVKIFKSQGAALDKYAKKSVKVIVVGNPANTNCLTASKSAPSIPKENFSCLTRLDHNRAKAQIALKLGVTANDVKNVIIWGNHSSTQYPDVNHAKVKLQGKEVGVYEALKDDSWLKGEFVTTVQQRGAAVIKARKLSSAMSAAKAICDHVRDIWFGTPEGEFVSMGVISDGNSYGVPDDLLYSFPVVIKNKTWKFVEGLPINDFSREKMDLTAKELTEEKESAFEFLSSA
Text: as §1, §2

[4] = tested on: H460 lung cancer cells; test: Cell growth inhibition assay (SRB), H460; assay type: cell-based; conditions: Homo sapiens, NCI-H460, means of three experiments, read-out: Cell Viability IC50 H460
Description: as §3, §4, §5

- IC50 [1]: > 5 µM
- IC50 [2]: > 20 µM
- melting point: 82 to 85 °C
- IC50 [3]: > 5 µM
- IC50 [4]: > 20 µM
SMILES: O=C(CCOc1ccc2ccccc2c1)Nc1cccc(OC(F)(F)F)c1 [Compound 39a, 3-(Naphthalen-2-yloxy)-N-(3-(trifluoromethoxy)phenyl)propanamide]

- IC50 [1]: > 5 µM
- IC50 [2]: 14.2 ± 0.2 µM
- melting point: 113 to 115 °C
- IC50 [3]: 1.61 ± 0.25 µM
- IC50 [4]: 14.86 ± 0.07 µM
SMILES: O=C(CCOc1ccc2ccc(Br)cc2c1)Nc1cccc(OC(F)(F)F)c1 [Compound 39b]

- IC50 [1]: > 5 µM
- IC50 [2]: 17.7 ± 0.18 µM
- melting point: 128 to 130 °C
- IC50 [3]: 1.61 ± 0.21 µM
- IC50 [4]: 14.8 ± 0.18 µM
SMILES: O=C(CCOc1ccc2cc(Br)ccc2c1)Nc1cccc(OC(F)(F)F)c1 [Compound 39c, 3-((6-Bromonaphthalen-2-yl)oxy)-N-(3-(trifluoromethoxy)phenyl)propanamide]

- IC50 [1]: 18.3 ± 1.8 µM
- IC50 [2]: > 20 µM
- melting point: 102 to 104 °C
- IC50 [3]: 2.25 ± 0.77 µM
SMILES: O=C(CCOc1ccc2cc(F)ccc2c1)Nc1cccc(OC(F)(F)F)c1 [Compound 39d, 3-((6-Fluoronaphthalen-2-yl)oxy)-N-(3-(trifluoromethoxy)phenyl)propanamide]

- IC50 [1]: 2.22 ± 0.28 µM
- IC50 [2]: 13.2 ± 1.3 µM
- melting point: 65 to 67 °C
- IC50 [3]: 3.15 ± 0.11 µM
- IC50 [4]: 12.4 ± 0.21 µM
SMILES: CC(C)(C)CC(C)(C)c1ccc(OCCNC(=O)c2cccc(OC(F)(F)F)c2)cc1 [Compound 44a, 3-(Trifluoromethoxy)-N-(2-(4-(2,4,4-trimethylpentan-2-yl)phenoxy)ethyl)benzamide]

- IC50 [1]: > 5 µM
- IC50 [2]: 7.32 ± 0.02 µM
- IC50 [4]: 7.61 ± 0.24 µM
SMILES: CC(C)(C)CC(C)(C)c1ccc(OCCNS(=O)(=O)c2cccc(OC(F)(F)F)c2)cc1 [Compound 44b, 3-(Trifluoromethoxy)-N-(2-(4-(2,4,4-trimethylpentan-2-yl)phenoxy)ethyl)benzenesulfonamide]

- IC50 [1]: 1.09 ± 0.06 µM
- IC50 [2]: 6.47 ± 0.06 µM
- IC50 [3]: 1.61 ± 0.02 µM
- IC50 [4]: 6.06 ± 0.06 µM
SMILES: CC(C)N(CCC(=O)Nc1cccc(OC(F)(F)F)c1)c1ccc(C(C)(C)CC(C)(C)C)cc1 [Compound 57b, 3-(Isopropyl(4-(2,4,4-trimethylpentan-2-yl)phenyl)amino)-N-(3-(trifluoromethoxy)phenyl)propanamide]

- IC50 [1]: 1.18 ± 0.01 µM
- IC50 [2]: 7.24 ± 0.11 µM
- IC50 [3]: 2.16 ± 0.01 µM
- IC50 [4]: 7.11 ± 0.03 µM
SMILES: CC(C)(C)CC(C)(C)c1ccc(N(CCC(=O)Nc2cccc(OC(F)(F)F)c2)C2CCC2)cc1 [Compound 57c, 3-(Cyclobutyl(4-(2,4,4-trimethylpentan-2-yl)phenyl)amino)-N-(3-(trifluoromethoxy)phenyl)propanamide]

- IC50 [1]: > 5 µM
- IC50 [2]: > 20 µM
- melting point: 164 to 166 °C
- IC50 [3]: 1.41 ± 0.47 µM
- IC50 [4]: > 20 µM
SMILES: CC(=O)N(CCC(=O)Nc1cccc(OC(F)(F)F)c1)c1ccc(C(C)(C)CC(C)(C)C)cc1 [Compound 57d, N-(3-(Trifluoromethoxy)phenyl)-3-(N-(4-(2,4,4-trimethylpentan-2-yl)phenyl)acetamido)propanamide]

The next lines start with the molecule.

SMILES: COc1cccc(NC(=O)CCOc2ccc(C(C)(C)CC(C)(C)C)cc2)c1 [Compound 5a, N-(3-Methoxyphenyl)-3-(4-(2,4,4-trimethylpentan-2-yl)phenoxy)propanamide]
- IC50 [1]: 1.5 ± 0.01 µM
- IC50 [2]: 11.1 ± 0.77 µM
- melting point: 97 to 99 °C
- IC50 [3]: 6.18 ± 0.74 µM
- IC50 [4]: 8.83 ± 0.34 µM

SMILES: CC(C)(C)CC(C)(C)c1ccc(OCCC(=O)Nc2cccc(C#N)c2)cc1 [Compound 5b, N-(3-Cyanophenyl)-3-(4-(2,4,4-trimethylpentan-2-yl)phenoxy)propanamide]
- IC50 [1]: 2 ± 0.05 µM
- IC50 [2]: 5.25 ± 0.21 µM
- melting point: 112 to 114 °C
- IC50 [3]: 6.96 ± 0.12 µM
- IC50 [4]: 5.84 ± 0.74 µM

SMILES: CC(C)(C)CC(C)(C)c1ccc(OCCC(=O)Nc2cccc(C(F)(F)F)c2)cc1 [Compound 5c, N-(3-(Trifluoromethyl)phenyl)-3-(4-(2,4,4-trimethylpentan-2-yl)phenoxy)propanamide]
- IC50 [1]: 1.04 µM
- IC50 [2]: 6.47 ± 0.06 µM
- melting point: 88 to 90 °C
- IC50 [3]: 8.35 ± 2.86 µM
- IC50 [4]: 5.68 ± 0.23 µM

SMILES: CC(C)(C)CC(C)(C)c1ccc(OCCC(=O)Nc2cccc(OC(F)(F)F)c2)cc1 [Compound 5d, N-(3-(Trifluoromethoxy)phenyl)-3-(4-(2,4,4-trimethylpentan-2-yl)phenoxy)propanamide]
- IC50 [1]: 1.24 ± 0.13 µM
- IC50 [2]: 6.42 ± 0.06 µM
- IC50 [3]: 0.94 ± 0.05 µM
- IC50 [4]: 6.81 ± 0.04 µM

SMILES: CC(C)(C)CC(C)(C)c1ccc(OCCC(=O)Nc2ccccc2OC(F)(F)F)cc1 [Compound 5e, N-(2-(Trifluoromethoxy)phenyl)-3-(4-(2,4,4-trimethylpentan-2-yl)phenoxy)propanamide]
- IC50 [1]: 3.09 ± 0.2 µM
- IC50 [2]: > 10 µM
- IC50 [3]: 3.14 ± 0.14 µM
- IC50 [4]: > 10 µM

SMILES: CC(C)(C)CC(C)(C)c1ccc(OCCC(=O)Nc2ccc(OC(F)(F)F)cc2)cc1 [Compound 5f, N-(4-(Trifluoromethoxy)phenyl)-3-(4-(2,4,4-trimethylpentan-2-yl)phenoxy)propanamide]
- IC50 [1]: 2.12 ± 0.21 µM
- IC50 [2]: 5.97 ± 0.71 µM
- IC50 [3]: 3.45 ± 0.07 µM
- IC50 [4]: 3.77 ± 0.02 µM

SMILES: CC(C)(C)CCc1ccc(OCCC(=O)Nc2cccc(OC(F)(F)F)c2)cc1 [Compound 14]
- IC50 [1]: 1.53 ± 0.08 µM
- IC50 [2]: 14.44 ± 0.1 µM
- IC50 [3]: 3.05 ± 0.29 µM
- IC50 [4]: 12.8 ± 1.36 µM

SMILES: CC(C)(C)CNc1ccc(OCCC(=O)Nc2cccc(OC(F)(F)F)c2)cc1 [Compound 21, 3-(4-(Neopentylamino)phenoxy)-N-(3-(trifluoromethoxy)phenyl)propanamide]
- IC50 [1]: > 5 µM
- IC50 [2]: > 10 µM
- IC50 [3]: > 5 µM
- IC50 [4]: > 10 µM

SMILES: CN(CC(C)(C)C)c1ccc(OCCC(=O)Nc2cccc(OC(F)(F)F)c2)cc1 [Compound 22, 3-(4-(Methyl(neopentyl)amino)phenoxy)-N-(3-(trifluoromethoxy)phenyl)propanamide]
- IC50 [1]: 3.13 ± 0.29 µM
- IC50 [2]: > 10 µM
- IC50 [3]: > 5 µM
- IC50 [4]: > 10 µM

SMILES: CC(C)(O)CC(C)(C)c1ccc(OCCC(=O)Nc2cccc(OC(F)(F)F)c2)cc1 [Compound 30, 3-(4-(4-Hydroxy-2,4-dimethylpentan-2-yl)phenoxy)-N-(3-(trifluoromethoxy)phenyl)propanamide]
- IC50 [1]: > 5 µM
- IC50 [2]: 8.28 ± 0.76 µM
- IC50 [3]: > 5 µM

SMILES: O=C(CCOc1ccc(-c2ccccc2)cc1)Nc1cccc(OC(F)(F)F)c1 [Compound 35a, 3-([1,1′-Biphenyl]-4-yloxy)-N-(3-(trifluoromethoxy)phenyl)propanamide]
- IC50 [1]: 1.38 ± 0.59 µM
- IC50 [2]: > 10 µM
- melting point: 132 to 134 °C
- IC50 [3]: 0.78 ± 0.08 µM
- IC50 [4]: > 10 µM

SMILES: O=C(CCOc1ccc(-c2ccc(F)cc2)cc1)Nc1cccc(OC(F)(F)F)c1 [Compound 35b, 3-((4′-Fluoro-[1,1′-biphenyl]-4-yl)oxy)-N-(3-(trifluoromethoxy)phenyl)propanamide]
- IC50 [1]: > 5 µM
- IC50 [2]: > 10 µM
- melting point: 101 to 103 °C
- IC50 [3]: > 5 µM
- IC50 [4]: > 10 µM

SMILES: CC(C)(C)CC(C)(C)c1ccc(N2CCN(C(=O)c3cccc(OC(F)(F)F)c3)CC2)cc1 [Compound 51, (3-(Trifluoromethoxy)phenyl)(4-(4-(2,4,4-trimethylpentan-2-yl)phenyl)piperazin-1-yl)methanone]
- IC50 [1]: > 5 µM
- IC50 [2]: > 20 µM
- melting point: 102 to 104 °C
- IC50 [3]: 5 ± 2.49 µM
- IC50 [4]: 18.4 ± 1.55 µM

SMILES: CC(C)(C)CC(C)(C)c1ccc(NCCC(=O)Nc2cccc(OC(F)(F)F)c2)cc1 [Compound 56, N-(3-(Trifluoromethoxy)phenyl)-3-((4-(2,4,4-trimethylpentan-2-yl)phenyl)amino)propanamide]
- IC50 [1]: 3.18 ± 0.18 µM
- IC50 [2]: 6.06 ± 0.01 µM
- IC50 [3]: 1.79 ± 0.04 µM
- IC50 [4]: 5.3 ± 0.01 µM
